Data: publication PMC11774580 (Chemosphere, 2024)
Several values for one entry are separate records, joined by “and”; a condition that tells them apart may be missing. Identical values can stand only once. Like-named read-outs stand apart in the source and are kept apart here.

Key:
human OAT3 [1] = biological target: T1, human OAT3 (Homo sapiens, UniProt Q8TCC7); assay: OAT3 inhibition assay
T1 sequence (Q8TCC7 1-542): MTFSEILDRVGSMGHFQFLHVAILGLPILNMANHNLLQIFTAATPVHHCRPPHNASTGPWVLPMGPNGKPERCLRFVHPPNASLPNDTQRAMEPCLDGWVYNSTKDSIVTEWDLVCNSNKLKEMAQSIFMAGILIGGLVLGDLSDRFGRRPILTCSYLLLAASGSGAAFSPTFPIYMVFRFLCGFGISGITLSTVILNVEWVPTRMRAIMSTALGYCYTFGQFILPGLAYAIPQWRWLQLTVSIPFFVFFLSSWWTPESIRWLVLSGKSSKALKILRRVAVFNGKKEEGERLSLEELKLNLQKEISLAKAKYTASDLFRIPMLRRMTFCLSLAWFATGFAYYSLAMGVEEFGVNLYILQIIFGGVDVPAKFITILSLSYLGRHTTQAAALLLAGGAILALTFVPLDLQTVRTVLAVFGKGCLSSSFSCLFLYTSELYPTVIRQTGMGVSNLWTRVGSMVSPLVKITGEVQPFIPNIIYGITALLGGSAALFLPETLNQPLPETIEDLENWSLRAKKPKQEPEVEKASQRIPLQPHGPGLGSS

human OAT3 [2] = biological target: T1, human OAT3; assay: hOAT3 substrate; conditions: for hOAT3 uptake ratio, fold higher than mock transfected controls / hOAT3 uptake ratio, % higher than mock transfectants: 1 μM PFAS screen; for Transporter Uptake Ratio OAT3: 1 μM PFAS, threshold ≥ 2-fold; for hOAT3-mediated uptake, fold: follow-up test, without probenecid; for Effect of probenecid cotreatment on hOAT3-mediated uptake: probenecid 1 mM
human OAT4 = biological target: T2, human OAT4 (Homo sapiens, UniProt Q9NSA0); assay: hOAT4 substrate; format: in vitro ADME; conditions: for hOAT4 uptake ratio, fold / hOAT4 uptake ratio, % above controls: 1 μM PFAS screen; for Transporter Uptake Ratio OAT4: 1 μM PFAS, threshold ≥ 2-fold; for Effect of probenecid co-treatment on hOAT4-mediated uptake: probenecid 1 mM
T2 sequence (Q9NSA0 1-550): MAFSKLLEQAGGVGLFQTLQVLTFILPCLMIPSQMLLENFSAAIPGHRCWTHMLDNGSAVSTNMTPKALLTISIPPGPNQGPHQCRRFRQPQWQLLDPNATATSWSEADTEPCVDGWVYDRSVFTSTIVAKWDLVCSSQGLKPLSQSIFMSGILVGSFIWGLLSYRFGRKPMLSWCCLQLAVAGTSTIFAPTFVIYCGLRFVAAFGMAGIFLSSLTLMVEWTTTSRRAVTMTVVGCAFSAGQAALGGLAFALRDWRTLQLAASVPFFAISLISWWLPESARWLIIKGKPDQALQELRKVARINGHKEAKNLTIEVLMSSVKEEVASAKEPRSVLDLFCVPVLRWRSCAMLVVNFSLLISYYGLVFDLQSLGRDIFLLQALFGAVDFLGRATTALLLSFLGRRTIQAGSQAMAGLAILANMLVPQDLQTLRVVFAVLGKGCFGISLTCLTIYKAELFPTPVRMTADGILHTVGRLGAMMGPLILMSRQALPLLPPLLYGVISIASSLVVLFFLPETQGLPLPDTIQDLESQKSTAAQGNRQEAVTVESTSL

[3] = system: MDCKII-LE cell monolayers; assay: Apparent permeability; conditions: donor pH 7.4, receiver pH 7.4; 2 μM PFAS; 90 min; 0.4% BSA in receiver
human OAT1 [4] = biological target: T3, human OAT1 (Homo sapiens, UniProt Q4U2R8); assay: OAT1 inhibition assay
T3 sequence (Q4U2R8 1-563): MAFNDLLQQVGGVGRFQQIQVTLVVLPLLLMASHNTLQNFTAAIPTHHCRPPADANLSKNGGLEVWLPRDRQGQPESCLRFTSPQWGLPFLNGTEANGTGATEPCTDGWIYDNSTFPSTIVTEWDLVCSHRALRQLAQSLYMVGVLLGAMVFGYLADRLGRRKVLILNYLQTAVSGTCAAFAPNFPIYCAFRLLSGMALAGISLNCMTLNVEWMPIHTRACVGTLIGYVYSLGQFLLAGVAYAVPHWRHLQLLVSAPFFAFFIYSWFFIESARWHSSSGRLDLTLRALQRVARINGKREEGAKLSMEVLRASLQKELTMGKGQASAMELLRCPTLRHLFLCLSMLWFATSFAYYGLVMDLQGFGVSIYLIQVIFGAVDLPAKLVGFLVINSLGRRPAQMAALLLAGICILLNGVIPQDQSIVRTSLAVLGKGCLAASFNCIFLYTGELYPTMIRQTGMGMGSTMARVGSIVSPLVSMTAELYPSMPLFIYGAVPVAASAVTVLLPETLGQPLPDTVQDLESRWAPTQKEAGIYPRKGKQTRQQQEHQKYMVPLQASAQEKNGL

human OAT1 [5] = biological target: T3, human OAT1; assay: hOAT1 substrate; conditions: for Transporter Uptake Ratio OAT1: 1 μM PFAS, threshold ≥ 2-fold; for hOAT-mediated uptake (Fig. 3A, OAT1), fold: follow-up test, without probenecid
[6] = read-out: IC50 hOAT3 inhibition, probe [3H]-ES 0.1 μM, 30 min pre-incubation

SMILES: O=S(=O)(O)C(F)(F)C(F)(F)C(F)(F)C(F)(F)C(F)(F)C(F)(F)F [PFHxS, perfluorohexane sulfonic acid]
- IC50 (human OAT3 [1]): 10.3 µM
- hOAT3 uptake ratio, fold higher than mock transfected controls (human OAT3 [2]): 2.5–12 fold
- Transporter Uptake Ratio OAT3 (human OAT3 [2]): + (denoted with a “+” to denote a threshold of ≥ 2-fold has been met and considered a substrate for the transporter)
- hOAT3-mediated uptake, fold (human OAT3 [2]): 2.5–15 fold
- Effect of probenecid cotreatment on hOAT3-mediated uptake (human OAT3 [2]): markedly inhibited
- OAT4 substrate classification (human OAT4): strong substrates
- hOAT4 uptake ratio, fold (human OAT4): greater than 2 fold
- Transporter Uptake Ratio OAT4 (human OAT4): + (denoted with a “+” to denote a threshold of ≥ 2-fold has been met and considered a substrate for the transporter)
- Fold difference in OAT4 uptake ratio between PFHxS and PFOS (human OAT4; PFHxS versus PFOS): ~ 2.5 fold
- Effect of probenecid co-treatment on hOAT4-mediated uptake (human OAT4): not inhibited

SMILES: O=C(O)C(F)(F)C(F)(F)C(F)(F)C(F)(F)C(F)(F)C(F)(F)C(F)(F)C(F)(F)C(F)(F)F [PFDA, perfluorodecanoic acid]
- Ph 7.4 A-B Papp [3]: 8.44 ×10⁻⁶ cm/s
- hOAT3 substrate classification (human OAT3 [2]): weak substrate
- hOAT3 uptake ratio, % higher than mock transfectants (human OAT3 [2]): 30–50%

SMILES: O=C(O)C(F)(F)C(F)(F)C(F)(F)F [PFBA, Perfluorobutanoic acid]
- Some level of inhibition against hOAT1 mediated transport (human OAT1 [4]): the only exceptions
- Ph 7.4 A-B Papp [3]: 0.93 ×10⁻⁶ cm/s
- Some level of inhibition against hOAT3 mediated transport (human OAT3 [1]): the only exceptions
- hOAT3 substrate classification (human OAT3 [2]): weak substrate
- hOAT3 uptake ratio, % higher than mock transfectants (human OAT3 [2]): 30–50%
- hOAT3 uptake ratio (human OAT3 [2]; statistically significant, below 2-fold cut-off): 1.5

SMILES: O=C(O)C(F)(F)C(F)(F)C(F)(F)C(F)(F)F [PFPA, perfluoropentanoic acid]
- Ph 7.4 A-B Papp [3]: 0.99 ×10⁻⁶ cm/s
- hOAT3 uptake ratio, fold higher than mock transfected controls (human OAT3 [2]): 2.5–12 fold
- Transporter Uptake Ratio OAT3 (human OAT3 [2]): + (denoted with a “+” to denote a threshold of ≥ 2-fold has been met and considered a substrate for the transporter)
- hOAT3-mediated uptake, fold (human OAT3 [2]): 2.5–15 fold
- Effect of probenecid cotreatment on hOAT3-mediated uptake (human OAT3 [2]): markedly inhibited
- Effect of probenecid co-treatment on hOAT4-mediated uptake (human OAT4): effectively inhibited

SMILES: O=C(O)C(F)(F)C(F)(F)C(F)(F)C(F)(F)C(F)(F)C(F)(F)C(F)(F)F [PFOA, perfluorooctanoic acid]
- IC50 (human OAT1 [4]): 51.4 to 166 µM
- Ph 7.4 A-B Papp [3]: 1.46 ×10⁻⁶ cm/s
- hOAT1 uptake ratio, % higher than controls (human OAT1 [5]; 1 μM PFAS screen): 5–60%
- IC50 (human OAT3 [1]): 8.9 µM
- hOAT3 uptake ratio, fold higher than mock transfected controls (human OAT3 [2]): 2.5–12 fold
- Transporter Uptake Ratio OAT3 (human OAT3 [2]): + (denoted with a “+” to denote a threshold of ≥ 2-fold has been met and considered a substrate for the transporter)
- hOAT3-mediated uptake, fold (human OAT3 [2]): 2.5–15 fold
- Effect of probenecid cotreatment on hOAT3-mediated uptake (human OAT3 [2]): markedly inhibited
- OAT4 substrate classification (human OAT4): strong substrates
- hOAT4 uptake ratio, fold (human OAT4): greater than 2 fold
- Transporter Uptake Ratio OAT4 (human OAT4): + (denoted with a “+” to denote a threshold of ≥ 2-fold has been met and considered a substrate for the transporter)
- Effect of probenecid co-treatment on hOAT4-mediated uptake (human OAT4): effectively inhibited

SMILES: O=S(=O)(O)C(F)(F)C(F)(F)C(F)(F)C(F)(F)C(F)(F)C(F)(F)C(F)(F)C(F)(F)F [PFOS, perfluorooctane sulfonic acid]
- Ph 7.4 A-B Papp [3]: 14 ×10⁻⁶ cm/s and 14.04 ×10⁻⁶ cm/s
- hOAT3 uptake ratio, % higher than mock transfectants (human OAT3 [2]): 30–50%
- OAT4 substrate classification (human OAT4): relatively weak substrate
- hOAT4 uptake ratio, % above controls (human OAT4): ~ 20%

SMILES: O=S(=O)(O)C(F)(F)C(F)(F)C(F)(F)C(F)(F)F [PFBS, Perfluorobutane sulfonic acid]
- Ph 7.4 A-B Papp [3]: 1.38 ×10⁻⁶ cm/s
- hOAT1 uptake ratio, % higher than controls (human OAT1 [5]; 1 μM PFAS screen): 5–60%
- hOAT3 uptake ratio, fold higher than mock transfected controls (human OAT3 [2]): 2.5–12 fold
- Transporter Uptake Ratio OAT3 (human OAT3 [2]): + (denoted with a “+” to denote a threshold of ≥ 2-fold has been met and considered a substrate for the transporter)
- hOAT3-mediated uptake, fold (human OAT3 [2]): 2.5–15 fold
- Effect of probenecid cotreatment on hOAT3-mediated uptake (human OAT3 [2]): markedly inhibited
- OAT4 substrate classification (human OAT4): strong substrates
- hOAT4 uptake ratio, fold (human OAT4): greater than 2 fold
- Transporter Uptake Ratio OAT4 (human OAT4): + (denoted with a “+” to denote a threshold of ≥ 2-fold has been met and considered a substrate for the transporter)
- Effect of probenecid co-treatment on hOAT4-mediated uptake (human OAT4): effectively inhibited

SMILES: O=C(O)C(F)(F)C(F)(F)C(F)(F)C(F)(F)C(F)(F)F [PFHxA, perfluorohexanoic acid]
- Ph 7.4 A-B Papp [3]: 1.16 ×10⁻⁶ cm/s
- hOAT1 uptake ratio, fold higher than the control (human OAT1 [5]; 1 μM PFAS screen): ~ 2 fold
- Transporter Uptake Ratio OAT1 (human OAT1 [5]): + (denoted with a “+” to denote a threshold of ≥ 2-fold has been met and considered a substrate for the transporter)
- hOAT-mediated uptake (Fig. 3A, OAT1), fold (human OAT1 [5]): ~ 2 fold
- Effect of probenecid co-treatment on hOAT1-mediated uptake (human OAT1 [5]; probenecid 1 mM): markedly reduced
- hOAT3 uptake ratio, fold higher than mock transfected controls (human OAT3 [2]): 2.5–12 fold
- Transporter Uptake Ratio OAT3 (human OAT3 [2]): + (denoted with a “+” to denote a threshold of ≥ 2-fold has been met and considered a substrate for the transporter)
- hOAT3-mediated uptake, fold (human OAT3 [2]): 2.5–15 fold
- Effect of probenecid cotreatment on hOAT3-mediated uptake (human OAT3 [2]): markedly inhibited
- OAT4 substrate classification (human OAT4): strong substrates
- hOAT4 uptake ratio, % above controls (human OAT4): ~ 20%
- Transporter Uptake Ratio OAT4 (human OAT4): + (denoted with a “+” to denote a threshold of ≥ 2-fold has been met and considered a substrate for the transporter)
- Effect of probenecid co-treatment on hOAT4-mediated uptake (human OAT4): effectively inhibited

SMILES: O=C(O)C(F)(F)C(F)(F)C(F)(F)C(F)(F)C(F)(F)C(F)(F)C(F)(F)C(F)(F)F [PFNA, perfluorononanoic acid]
- Ph 7.4 A-B Papp [3]: 3.77 ×10⁻⁶ cm/s
- IC50 (human OAT3 [1]; [6]): 9.8 µM
- hOAT3 uptake ratio, fold higher than mock transfected controls (human OAT3 [2]): 2.5–12 fold
- Transporter Uptake Ratio OAT3 (human OAT3 [2]): + (denoted with a “+” to denote a threshold of ≥ 2-fold has been met and considered a substrate for the transporter)
- hOAT3-mediated uptake, fold (human OAT3 [2]): 2.5–15 fold
- Effect of probenecid cotreatment on hOAT3-mediated uptake (human OAT3 [2]): markedly inhibited
- OAT4 substrate classification (human OAT4): strong substrates
- hOAT4 uptake ratio, fold (human OAT4): greater than 2 fold
- Transporter Uptake Ratio OAT4 (human OAT4): + (denoted with a “+” to denote a threshold of ≥ 2-fold has been met and considered a substrate for the transporter)
- Effect of probenecid co-treatment on hOAT4-mediated uptake (human OAT4): effectively inhibited

SMILES: O=S(=O)(O)CCC(F)(F)C(F)(F)C(F)(F)C(F)(F)C(F)(F)C(F)(F)F [6:2FTS, 6:2 fluorotelomer sulfonate]
- Ph 7.4 A-B Papp [3]: 0.71 ×10⁻⁶ cm/s
- Transporter Uptake Ratio OAT1 (human OAT1 [5]): + (denoted with a “+” to denote a threshold of ≥ 2-fold has been met and considered a substrate for the transporter)
- hOAT-mediated uptake (Fig. 3A, OAT1), fold (human OAT1 [5]): ~ 4 fold
- IC50 (human OAT3 [1]; [6]): 11.3 µM
- hOAT3 uptake ratio, fold higher than mock transfected controls (human OAT3 [2]): 2.5–12 fold
- Transporter Uptake Ratio OAT3 (human OAT3 [2]): + (denoted with a “+” to denote a threshold of ≥ 2-fold has been met and considered a substrate for the transporter)
- hOAT3-mediated uptake, fold (human OAT3 [2]): 2.5–15 fold
- hOAT4 uptake ratio, fold (human OAT4): greater than 2 fold
- Transporter Uptake Ratio OAT4 (human OAT4): + (denoted with a “+” to denote a threshold of ≥ 2-fold has been met and considered a substrate for the transporter)

SMILES: O=C(O)C(F)(F)C(F)(F)C(F)(F)C(F)(F)C(F)(F)C(F)(F)C(F)(F)C(F)(F)C(F)(F)C(F)(F)F [PFUDA, perfluoroundecanoic acid]
- Ph 7.4 A-B Papp [3]: 11.56 ×10⁻⁶ cm/s
